The text below walks through data of PubChem BioAssay (NCI).

Among the test systems are SNB-75 CNS; NCI/ADR-RES ovarian; DU-145 prostate; SF-295 CNS; UACC-257 melanoma; MALME-3M melanoma; MCF7 breast; CCRF-CEM leukemia; SK-MEL-2 melanoma; COLO 205 colon.
What all share (assay): NCI tumour cell line growth inhibition, 48 h

Each structure is given as a SMILES string.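 Results reflect a 48-hour exposure of cells in 96-well plates to compound at five concentrations. GI50 marks 50% less growth. TGI denotes the concentration required for complete inhibition of growth.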

`C(=C\c1nccc2c1[nH]c1ccccc12)/c1ccccc1`: the GI50 in the assay on SNB-75 CNS was 2.76 µM; in the assay on NCI/ADR-RES ovarian, 3.1 µM; with DU-145 prostate it was 3.5 µM; in the assay on SF-295 CNS, 0.714 µM; in the assay on UACC-257 melanoma, 17.8 µM; in the assay on MALME-3M melanoma, 4.5 µM. In addition, the GI50 with MCF7 breast was 2.15 µM; with CCRF-CEM leukemia it was 2.1 µM; in the assay with SK-MEL-2 melanoma, 5.82 µM; in the assay with COLO 205 colon it was 1.56 µM. The TGI in the assay with SNB-75 CNS is 21.9 µM; in the assay with NCI/ADR-RES ovarian, 20.3 µM; in the assay on DU-145 prostate, 12.3 µM; in the assay with SF-295 CNS it was 3.21 µM; in the assay with UACC-257 melanoma, 76.7 µM; with MALME-3M melanoma, 27.7 µM. For the same molecule, the TGI with MCF7 breast was 23 µM; in the assay on CCRF-CEM leukemia, 6.03 µM; in the assay with SK-MEL-2 melanoma it was 39.7 µM; with COLO 205 colon, 3.62 µM.

On to `O=S(=O)(O)/C(=C\c1ccccc1)c1ccccc1` (tested in a mixture with another compound), for which the TGI with SNB-75 CNS, in the assay with NCI/ADR-RES ovarian, with DU-145 prostate, in the assay on SF-295 CNS, with UACC-257 melanoma and in the assay on MALME-3M melanoma was more than 100 µM each time. Moreover, the TGI in the assay on MCF7 breast, with CCRF-CEM leukemia, in the assay with SK-MEL-2 melanoma and in the assay with COLO 205 colon was more than 100 µM in each case.

With `C=C1CC2(CCCC3(CC(=C)C(=O)O3)C2(C)C)OC1=O` (stereo not drawn), the TGI in the assay with SNB-75 CNS is 34.4 µM; with NCI/ADR-RES ovarian, 27.9 µM; in the assay on DU-145 prostate it was 15.8 µM; in the assay on SF-295 CNS it was 33.8 µM; with UACC-257 melanoma it was 5.78 µM; in the assay on MALME-3M melanoma, 3.61 µM. The TGI was 63.7 µM with MCF7 breast, 5.74 µM with CCRF-CEM leukemia, 27.7 µM in the assay with SK-MEL-2 melanoma and 4.61 µM in the assay with COLO 205 colon.

`COc1ccc(CC(NC(=O)[C@H](C)NC(=O)CN2CCOCC2)C(=O)N[C@@H](Cc2ccccc2)C(=O)[C@@]2(C)CO2)cc1` (stereo partly drawn): the GI50 was 0.175 µM with SNB-75 CNS; 19.8 µM in the assay with NCI/ADR-RES ovarian; 0.437 µM with DU-145 prostate; 0.185 µM with SF-295 CNS; 0.296 µM in the assay on UACC-257 melanoma; 0.281 µM with MALME-3M melanoma. The GI50 in the assay on MCF7 breast is 0.129 µM; in the assay with CCRF-CEM leukemia it was 0.0859 µM; with SK-MEL-2 melanoma it was 0.264 µM; in the assay with COLO 205 colon, 0.308 µM. In addition, the TGI is 0.427 µM in the assay with SNB-75 CNS; more than 100 µM with NCI/ADR-RES ovarian; 5.71 µM in the assay with DU-145 prostate; 0.587 µM with SF-295 CNS; 1.41 µM with MALME-3M melanoma; more than 41.6 µM in the assay with MCF7 breast. The TGI in the assay on CCRF-CEM leukemia is more than 100 µM; in the assay with SK-MEL-2 melanoma, 0.974 µM; in the assay with COLO 205 colon it was 0.933 µM.

On to `COc1cc(NCc2ccccc2O)c2ncccc2c1`, for which the GI50 is 8.52 µM in the assay with SNB-75 CNS; 23.2 µM in the assay on NCI/ADR-RES ovarian; 41.7 µM in the assay with DU-145 prostate; 20.6 µM in the assay with SF-295 CNS; 19.5 µM with UACC-257 melanoma; 14 µM in the assay with MALME-3M melanoma. Moreover, the GI50 was 24.4 µM in the assay on MCF7 breast, 17 µM in the assay on CCRF-CEM leukemia, 18.1 µM in the assay with SK-MEL-2 melanoma and 19.7 µM with COLO 205 colon. Further, the TGI in the assay on SNB-75 CNS was 59.3 µM; in the assay on NCI/ADR-RES ovarian it was 85.3 µM; in the assay on DU-145 prostate it was more than 100 µM; in the assay on SF-295 CNS, 67.4 µM; in the assay on UACC-257 melanoma, 70.7 µM; in the assay with MALME-3M melanoma, 44.4 µM. Also, the TGI in the assay on MCF7 breast was more than 100 µM; with CCRF-CEM leukemia it was more than 100 µM; in the assay with SK-MEL-2 melanoma it was 50.3 µM; in the assay on COLO 205 colon, 77.2 µM.

For the molecule `CC(=O)OC1CCC2(C)C(=CCC3C4CCC5(OC6CC(C)CN(C(C)=O)C6C5C)C(C)=C4C(=O)C32)C1` (stereo not drawn), the TGI is 41.5 µM in the assay with SNB-75 CNS; 49.5 µM with NCI/ADR-RES ovarian; more than 100 µM in the assay with DU-145 prostate; 42 µM with SF-295 CNS; 27.3 µM in the assay on UACC-257 melanoma; 29.9 µM in the assay on MALME-3M melanoma. The TGI is 26.4 µM with MCF7 breast, more than 100 µM with CCRF-CEM leukemia, 31.9 µM with SK-MEL-2 melanoma and 32.4 µM with COLO 205 colon.

Consider `COc1cc(C2=NN(c3ccc(S(N)(=O)=O)cc3)C(c3ccc(Cl)cc3)C2)cc(OC)c1OC` (stereo not drawn), for which the GI50 in the assay with SNB-75 CNS was 2.22 µM; in the assay on NCI/ADR-RES ovarian it was 3.76 µM; with DU-145 prostate it was 9.78 µM; with SF-295 CNS, 2.53 µM; in the assay with UACC-257 melanoma, 9.5 µM; in the assay on MALME-3M melanoma, 11.4 µM. The GI50 in the assay on MCF7 breast is 3.36 µM; in the assay with CCRF-CEM leukemia it was 4.81 µM; in the assay with SK-MEL-2 melanoma it was 3.35 µM; in the assay on COLO 205 colon, 3.52 µM. Moreover, the TGI was more than 100 µM in the assay on SNB-75 CNS; more than 100 µM in the assay on NCI/ADR-RES ovarian; more than 100 µM in the assay with DU-145 prostate; 6.55 µM with SF-295 CNS; more than 100 µM in the assay on UACC-257 melanoma; more than 100 µM with MALME-3M melanoma. For the same molecule, the TGI with MCF7 breast was more than 100 µM; in the assay on CCRF-CEM leukemia, more than 100 µM; in the assay on SK-MEL-2 melanoma, 14.1 µM; in the assay with COLO 205 colon, 12.2 µM.

With `CC(CN1CCN(CC(C)Nc2ccnc3cc(Cl)ccc23)CC1)Nc1ccnc2cc(Cl)ccc12` (stereo not drawn), the TGI was 18.3 µM with SNB-75 CNS; more than 100 µM with NCI/ADR-RES ovarian; more than 100 µM in the assay on DU-145 prostate; 51.2 µM in the assay with SF-295 CNS; 29.5 µM in the assay on UACC-257 melanoma; 26.5 µM in the assay with MALME-3M melanoma. Also, the TGI with MCF7 breast is more than 100 µM; in the assay with CCRF-CEM leukemia, more than 100 µM; in the assay on SK-MEL-2 melanoma, 62.7 µM; with COLO 205 colon, 31.8 µM. The GI50 in the assay with NCI/ADR-RES ovarian was 83.6 µM; in the assay on DU-145 prostate it was 7.83 µM; in the assay on MCF7 breast it was 8.29 µM; in the assay with SK-MEL-2 melanoma it was 25.8 µM.

Consider `C[C@]12C3CC[C@@]4(CO)C[C@]3(CCC1[C@](C)(C(=O)O)CC[C@@H]2O)CC4=O` (stereo partly drawn), for which the GI50 in the assay on SNB-75 CNS, in the assay with NCI/ADR-RES ovarian, with DU-145 prostate, with SF-295 CNS, with UACC-257 melanoma and in the assay with MALME-3M melanoma was more than 100 µM each time. The GI50 with MCF7 breast, in the assay with CCRF-CEM leukemia, in the assay with SK-MEL-2 melanoma and with COLO 205 colon was more than 100 µM throughout. Moreover, the TGI with SNB-75 CNS, with NCI/ADR-RES ovarian, in the assay on DU-145 prostate, in the assay with SF-295 CNS, with UACC-257 melanoma and in the assay on MALME-3M melanoma was more than 100 µM throughout. Moreover, the TGI in the assay with MCF7 breast, in the assay on CCRF-CEM leukemia, in the assay on SK-MEL-2 melanoma and in the assay on COLO 205 colon was more than 100 µM throughout.
